Measured values: patent US8679859B2, “Method for functionalizing materials and devices comprising such materials” (State of Oregon by and through the State Board of Higher …, priority 2007, dated 2014)

Experiments:
jack bean lectin (Con A) = biological target: T1, jack bean lectin (Con A) (Canavalia ensiformis, UniProt P02866); assay: Carbohydrate microarray on PEO-coated glass slides, fluorescence-tagged lectin binding; settings: lectin 10 μg/ml, FIG. 31
T1 construct: purchased Molecular Probes

soybean agglutinin (SBA) = soybean agglutinin (SBA) (Glycine max, UniProt P05046); assay: as above; settings: lectin 10 μg/ml, FIG. 32
Sequence of soybean agglutinin (SBA) (P05046 33-285): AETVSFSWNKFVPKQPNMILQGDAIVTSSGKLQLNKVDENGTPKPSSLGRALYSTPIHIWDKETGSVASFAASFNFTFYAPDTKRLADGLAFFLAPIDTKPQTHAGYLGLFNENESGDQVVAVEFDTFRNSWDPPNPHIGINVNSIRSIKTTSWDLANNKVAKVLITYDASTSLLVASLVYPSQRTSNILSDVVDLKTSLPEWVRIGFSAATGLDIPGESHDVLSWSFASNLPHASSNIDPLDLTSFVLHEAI

peanut agglutinin (PNA) = biological target: T2, peanut agglutinin (PNA) (Arachis hypogaea, UniProt P02872); assay: as above; settings: lectin 10 μg/ml, FIG. 30
T2 construct: purchased Molecular Probes
T2 sequence (P02872 24-273): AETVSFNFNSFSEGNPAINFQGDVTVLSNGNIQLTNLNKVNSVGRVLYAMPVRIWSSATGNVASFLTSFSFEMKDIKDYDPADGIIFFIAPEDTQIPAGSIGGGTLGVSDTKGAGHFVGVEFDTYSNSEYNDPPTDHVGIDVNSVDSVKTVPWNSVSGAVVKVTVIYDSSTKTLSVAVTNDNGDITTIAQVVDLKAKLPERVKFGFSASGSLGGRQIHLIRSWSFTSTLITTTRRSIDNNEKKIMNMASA

Con A = Con A (Canavalia ensiformis, UniProt P02866); settings: free carbohydrate with Con A, isothermal microcalorimetry, Mandal et al.; cited from earlier work

| Compound | Con A binding pattern on microarray (fluorescence) (jack bean lectin (Con A)) | PNA binding pattern on microarray (fluorescence) (peanut agglutinin (PNA)) | further results |
| --- | --- | --- | --- |
| [N-]=[N+]=Nc1c(F)c(F)c(C(=O)NCCOCCOCCO[C@@H]2OC(CO)[C@@H](O)C(O)C2O)c(F)c1F (stereo partly drawn) [β-D-glucoside] | low binding |  |  |
| [N-]=[N+]=Nc1c(F)c(F)c(C(=O)NCCOCCOCCO[C@@H]2OC(CO)[C@@H](O[C@@H]3OC(CO)[C@H](O)C(O)C3O)C(O)C2O)c(F)c1F (stereo partly drawn) [lactose] |  | primary ligand | SBA binding pattern on microarray (fluorescence) (soybean agglutinin (SBA)): showed binding |
| [N-]=[N+]=Nc1c(F)c(F)c(C(=O)NCCOCCOCCO[C@H]2OC(CO)[C@@H](O)C(O)C2O)c(F)c1F (stereo partly drawn) [α-D-mannoside structures] | specificity of Con A for binding |  |  |
| cellobiose |  | lesser amounts of binding |  |
| OC[C@H]1O[C@H](O[C@H]2[C@H](O)[C@@H](CO)OC(O)[C@H]2O)[C@@H](O)[C@@H](O)[C@@H]1O (stereo partly drawn) [α-1,3-mannobiose] |  |  | Ka (Con A): 142000 M⁻¹ |
